Reference: patent US20060100210A1, “Methods for treatment of scleroderma” (priority 2001, published 2006)
Counter-ions that a name gives are not always drawn. Like-named read-outs stand apart in the source and are kept apart here.

Key:
[1] = target: T1, GST-cGB-PDE5 fusion protein (cGMP binding sites of human PDE5A) (Homo sapiens, UniProt O76074); assay: cGMP binding assay with GST-cGB-PDE5 fusion protein; details: for competition with cGMP in binding of GST-cGB-PDE5: high concentration (100 μM) vs cGMP (2 μM)
T1 construct: made in house; host or cells: E. coli BL21 (DE3)
Excerpt: RT-PCR method is used to obtain the cGB domain of PDE5 with forward and reverse primers designed from bovine PDE5A cDNA sequence (McAllister-Lucas L. M. et al, J. Biol. Chem. 268, 22863-22873, 1993) and the selection among PDE 1-10 families. 5′-3′, Inc. kits for total RNA followed by oligo (dT) column purification of mRNA are used with HT-29 cells. […] It is then cloned into pGEX-5×-3 […] (GST) fusion vector (Pharmacia Biotech) with tac promoter, and EcoRI and XhoI cut sites. The fusion vector is then transfected into E. Coli BL21 (DE3) bacteria (Invitrogen). The transfected BL21 bacteria is grown to log phase, and then IPTG is added as an inducer. The induction is carried at 20° C. for 24 hrs. The bacteria are harvested and lysed. The soluble cell lysate is incubated with GSH conjugated Sepharose 4B (GSH-Sepharose 4B). The GST-cGB-PDE5 fusion protein can bind to the GSH-Sepharose beads, and the other proteins are washed off from beads with excessive cold PBS.
The vials are counted on a Beckman LS 6500 scintillation counter.
The quenching by filter membrane or other debris are also calibrated.

[2] = Long-term safety assessment, 91 consecutive days, rats; type: in vivo; details: 91 days, 200 and 500 mg/kg/day
Excerpt: These changes were not associated with any gross clinical abnormality.

U937 cells = assay: Apoptosis induction of U937 cells (active caspase 3, indirect immunofluorescence); type: cell-based; details: 1 μM, 24 hours
Method: The presence of PDE2 and PDE5 protein within U937 cells was confirmed by indirect immunofluorescence (IIF). U937 cells were cultured as above. Two U937 cultures, one grown in the presence of 5 nM TPA for 48 hours and one grown in normal media were processed. All cultures were collected by centrifugation (Shandon Cytospin, 2 minutes @ 600 rpm) onto poly-L lysine-coated slides and immediately fixed in fresh 3% paraformaldehyde buffered in PBS for 10 minutes. Adherent cultures were grown on coverslips and fixed as above. Cells were permeablized in 0.2% triton-100 for 2 minutes. Slides were blocked with blocking buffer (5% goat serum, 5% glycerol, 1% gelatin from cold water fish skin and 0.04% NaN3 in PBS) for 1 hour at room temperature.
Slides were then incubated for 1 hour at 37° C. in a humid chamber with antibodies specific for PDE2 (generated in a sheep against the peptide […]) or PDE5 (generated in sheep against the peptide […]). The PDE5 antibody was used at a dilution of 1:200 and the PDE2 antibody was used at a dilution of 1:100. All dilutions were performed in blocking buffer. […]
The level of apoptosis in U937 cells was quantified by scoring 500 consecutive cells for the presence of active caspase 3. […]

[3] = Seven-day dose-range finding study in rats; type: in vivo; details: 7 days, 500 mg/kg/day
[4] = in vivo; cited from earlier work

T1 sequence (O76074 46-539 limits assumed): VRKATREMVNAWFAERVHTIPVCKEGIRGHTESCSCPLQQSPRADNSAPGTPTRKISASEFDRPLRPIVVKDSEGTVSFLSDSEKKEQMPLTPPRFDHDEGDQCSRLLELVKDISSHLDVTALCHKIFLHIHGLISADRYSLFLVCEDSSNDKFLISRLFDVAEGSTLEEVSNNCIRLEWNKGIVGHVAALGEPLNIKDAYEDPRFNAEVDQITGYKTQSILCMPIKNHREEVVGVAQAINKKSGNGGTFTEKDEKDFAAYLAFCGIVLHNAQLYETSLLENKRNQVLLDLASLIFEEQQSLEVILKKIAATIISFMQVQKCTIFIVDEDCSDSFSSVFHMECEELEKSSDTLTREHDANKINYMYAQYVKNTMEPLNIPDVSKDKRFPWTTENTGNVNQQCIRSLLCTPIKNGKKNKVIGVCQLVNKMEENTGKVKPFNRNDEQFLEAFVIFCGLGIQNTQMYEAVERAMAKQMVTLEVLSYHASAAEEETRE

Compound | competition with cGMP in binding of GST-cGB-PDE5 (cGMP binding sites) ([1]; 3H-cGMP 2 μM, 22° C., 1 hour) | other results
CCCCOC1C2OP(=O)(O)OCC2OC1n1cnc2c(N)ncnc21 (stereo not shown) [2′-O-butyl-cAMP] | did not compete with cGMP in binding | –
CCCCOC1C2OP(=O)(O)OCC2OC1n1cnc2c(=O)[nH]c(N)nc21 (stereo not shown) [2′-O-butyl-cGMP] | did not compete with cGMP in binding | –
CC1=C(CC(=O)NCc2ccccc2)c2cc(F)ccc2/C1=C\c1ccncc1 [Compound 38, (Z)-5-Fluoro-2-Methyl-(4-Pyridylidene)-3-(N-Benzyl) Indenylacetamide Hydrochloride] | does not bind to the cGMP-binding site of PDE5 | microscopic findings [2]: slight hepatocellular hypertrophy at 200 and 500 mg/kg/day groups, follicular cell hypertrophy at 500 mg/kg/day and increase in accumulation of hyalin droplets in the kidneys at 200 and 500 mg/kg/day group; apoptosis by presence of active caspase 3 (FIG. 8) (U937 cells): undergoing apoptosis; treatment-related effects [3]: limited to an increase in absolute and relative liver weights in female rats
Nc1ncnc2c1ncn2[C@@H]1O[C@@H]2COP(=O)(O)O[C@H]2[C@H]1O [Cyclic AMP] | – | competition with cGMP in binding of GST-cGB-PDE5 (cGMP binding sites) [1]: did not compete with cGMP in binding
O=c1[nH]cnc2c1ncn2[C@@H]1O[C@@H]2COP(=O)(O)O[C@H]2[C@H]1O [Cyclic IMP, cyclic IMP] | – | competition with cGMP in binding of GST-cGB-PDE5 [1]: can partially compete with cGMP
Nc1nc2c(nc(Br)n2[C@@H]2O[C@@H]3COP(=O)(O)O[C@H]3[C@H]2O)c(=O)[nH]1 [Example 8-bromo-cGMP, 8-bromo-cGMP] | – | competition with cGMP in binding of GST-cGB-PDE5 [1]: can partially compete with cGMP
O=C(O)C1CCN(c2nc(NCc3ccc4c(c3)OCO4)c3cc(Cl)ccc3n2)CC1 [Example E4021] | None of the PDE5 inhibitors showed any competition with cGMP | –
CSc1ccc(/C=C2/C(C)=C(CC(=O)O)c3cc(F)ccc32)cc1 [Sulindac sulfide, sulindac sulfide] | None of the PDE5 inhibitors showed any competition with cGMP | –
Nc1ccn([C@@H]2O[C@@H]3COP(=O)(O)O[C@H]3[C@H]2O)c(=O)n1 [cCMP, cyclic CMP] | did not compete with cGMP in binding | –
O=c1ccn([C@@H]2O[C@@H]3COP(=O)(O)O[C@H]3[C@H]2O)c(=O)[nH]1 [cUMP, cyclic UMP] | did not compete with cGMP in binding | –
CC1=C(CC(=O)O)c2cc(F)ccc2/C1=C\c1ccc(S(C)(=O)=O)cc1 [exisulind] | None of the PDE5 inhibitors showed any competition with cGMP | –
CCCOc1ccccc1-c1nc2nn[nH]c2c(=O)[nH]1 [zaprinast] | None of the PDE5 inhibitors showed any competition with cGMP | –
interferon gamma: interferon, drug that affects certain factors in the immune system | – | skin symptoms [4]: modest improvement in skin symptoms
